Data on four compounds can be found in patent publication EP0812835B1, “OPTICALLY ACTIVE THIAZOLIDINONE DERIVATIVES” (SANKYO COMPANY LIMITED, priority 1995, dated 1996).

A short description of series [1]: Stability of compounds (storage, residual ratio by high pressure liquid chromatography). The settings on record: for storage stability: in words. Type of series: physicochemical. How it is done:
About 2 mg of the test compound was accurately weighed and placed in a brown bottle. The bottle was left to stand at a dark place at room temperature (24-26°C) for 4 weeks and a residual ratio (%) of the test compound was measured by high pressure liquid chromatography (column: Inertsil ODS-3, eluting solvent: 10 mM (pH=7.0) phosphoric acid buffer/acetonitrile=80/20).

In series [2] the test system is Collateral Vessel. In words: Collateral vessel dilating action by intravenous administration (Collateral Index, carotid artery occlusion). The conditions noted are these: dose of 0.3 mg/kg, intravenous (inguinal vein), anesthetized dogs. Type of series: in vivo, Beagle dogs (male). How it is done: Collateral Vessel Dilating Action by Intravenous Administration
Beagle dogs (male) weighing 9 to 13 kg were anesthetized by intravenous injection of pentobarbital at a dose of 30 mg/kg and tested under artificial respiration. In order to measure the pressure of the left carotid artery, a polyethylene cannula (Atom intravenous catheter 2F) was inserted […] into one branch of the left thyroid artery. The left carotid artery upstream from this pressure measurement site was occluded for 1 minute with an arterial clamp, and the pressure immediately before occlusion (P) and the decrease in peripheral pressure (ΔP) were measured. Next, the test drug was administered through another polyethylene cannula inserted into the inguinal vein. The left carotid artery was occluded for 1 minute after 5, 15, 30, 45 and 60 minutes, and pressure immediately before occlusion (Pa) and the decrease in peripheral pressure (ΔPa) each time were measured. Collateral vessel dilating effect (Collateral Index = CI) of the test drug was determined according to the following formula: CI = 100 - (ΔPa/Pa) x 100/(ΔP/P) [formula]

The test system of series [3] is aspirin-induced ulcer. In words: Inhibition of aspirin-induced ulcer. The settings on record: for Inhibition rate (%): 1 hour before aspirin, area of ulceration vs control group. Type of series: in vivo, Donryu strain male rats. How it is done:
Inhibition of aspirin-induced ulcer
As a test animal, 10 Donryu strain male rats each weighing 200 g-250 g were used in one group. The rats were fasted before the experiment for 24 hours but they could freely drink water. The test compounds were suspended in 0.5% carboxymethyl cellulose (CMC) solution. Meanwhile, for a control group, 0.5% CMC solution was used.
The test compound was orally administered (0.1 ml/100 g body weight) to the rats and an aspirin solution (150 mg/ml: suspended in 0.5% CMC solution) was orally administered (0.1 ml/100 g body weight) to the rats 1 hour later. Four hours after the administration of the aspirin solution, the rats were sacrificed using carbon dioxide gas and the stomach of each rat was taken out. Into the stomachs were poured 10 ml of 1% formalin solution to allow the stomachs to expand, and the stomachs were immersed in 1% formalin solution in a beaker for about 15-20 minutes. Then, each stomach was cut along the greater curvature thereof and an area of the ulceration in the gastric mucosa was measured by means of an image analysis apparatus [Luzex-F: manufactured by Nireko Co., Ltd.]. The average value of the area of the ulceration of each group was calculated from the area of the ulceration of each rat and the inhibition rate was obtained by comparing the average value of the test group with that of the control group.

The test system of series [4] is Collateral Vessel. Kind of series: Collateral vessel dilating action by administration into the portal vein (first-pass effect test). Type of series: in vivo, Beagle dogs (male). The conditions noted are these: administered into the portal vein, compared with intravenous administration, 60 minutes. How it is done:
Collateral Vessel Dilating Action by Administration into the Portal Vein
While test specimens were prepared according to the method of Test example 1, the animal was laparotomized along the abdominal median line, and a branch of the mesenteric vein was removed and incised so as to administer the test drug into the portal vein. A polyethylene cannula (Atom intravenous catheter 2F) was inserted antegrade into this vein to reside in the portal vein, and then the test drug was administered through it. In order to test the first-pass effect of the test drug, it was first administered intravenously (inguinal vein) to determine collateral vessel dilating action of the drug for 60 minutes. The same test drug was then administered into the portal vein 2 or 3 hours later to determine collateral vessel dilating action for 60 minutes, and those actions were compared with each other.

Marks after values point to notes of the source that are not given here.

For the compound `C[C@@H](CO[N+](=O)[O-])NC(=O)[C@@H]1CSC(=O)N1` [Example 1, (4R)-N-[(1S)-1-Methyl-2-nitroxyethyl]-2-oxothiazolidin-4-vl-carboxamide], the “Residual ratio (%)” value in series [1] (dark place at room temperature (24-26°C) for 4 weeks, brown bottle) was determined as 101.2%. The storage stability entry in series [1] (as compared with the 1:1 mixture of Example 1 and the (4R),(1R)-isomer) was “excellent storage stability”; in series [1] (as compared with the (4R),(1R)-isomer) it was “excellent storage stability”. For the same compound, in series [2], the “CI(60)” value was more than 10. The “Inhibition rate (%)” value is on record as 63.58*^) % in series [3] (30 mg/kg orally, p<0.05); 80.15**^) % in series [3] (100 mg/kg orally, p<0.005); 93.17**^) % in series [3] (300 mg/kg orally, p<0.005). Also, in series [3] (result in words, summary of Table 4), the anti-ulcerative action entry was “excellent anti-ulcerative action”. In addition, the “collateral vessel dilating action” value in series [4] is listed as “excellent collateral vessel dilating action”.
With `CCC[C@@H](CO[N+](=O)[O-])NC(=O)[C@@H]1CSC(=O)N1` [Example 5, (4R)-N-[(1S)-1-Propyl-2-nitroxyethyl]-2-oxothiazolidin-4-yl-carboxamide], the “CI(60)” value in series [2] is reported as more than 10.
For the compound `CCCC[C@@H](CO[N+](=O)[O-])NC(=O)[C@@H]1CSC(=O)N1` [Example 6, (4R)-N-[(1S)-1-Butyl-2-nitroxyethyl]-2-oxothiazolidin-4-yl-carboxamide], the “CI(60)” value in series [2] is on record as more than 10.
Regarding `CC(C)C[C@@H](CO[N+](=O)[O-])NC(=O)[C@@H]1CSC(=O)N1` [Example 8, (4R)-N-[(1S)-1-Isobutyl-2-nitroxyethyl]-2-oxothiazolidin-4-yl-carboxamide], in series [2], the “CI(60)” value was more than 10.
